According to US20060216235A1, “Cancerous disease modifying antibodies” (priority 2003, published 2006):

Legend:
[1] = tested on: CCD 27sk; conditions: purified antibody, 5 days; four experiments in triplicate; non-cancer cells
[2] = tested on: NCI H460; set-up: key to the marks not given beside the values; conditions: purified antibody, 5 days; four experiments in triplicate
[3] = tested on: Hs888 Lu; conditions: purified antibody, 5 days; four experiments in triplicate; non-cancer cells
[4] = tested on: SW620; conditions: purified antibody, 5 days; four experiments in triplicate
[5] = tested on: HT-29; set-up: key to the marks not given beside the values; conditions: purified antibody, 5 days; four experiments in triplicate
[6] = tested on: PC-3; set-up: key to the marks not given beside the values; conditions: purified antibody, 5 days; four experiments in triplicate
[7] = tested on: SW1116; conditions: purified antibody, 5 days; four experiments in triplicate
[8] = tested on: MB-468; set-up: key to the marks not given beside the values; conditions: purified antibody, 5 days; four experiments in triplicate
[9] = tested on: MCF-7; set-up: key to the marks not given beside the values; conditions: purified antibody, 5 days; four experiments in triplicate
[10] = tested on: MB-231; set-up: key to the marks not given beside the values; conditions: purified antibody, 5 days; four experiments in triplicate
[11] = tested on: OVCAR; set-up: key to the marks not given beside the values; conditions: purified antibody, 5 days; four experiments in triplicate
[12] = tested on: MDA-MB-231; experiment: Live/Dead cytotoxicity assay, hybridoma supernatants; conditions: hybridoma supernatant, 5 days
[13] = tested on: MDA-MB-468; experiment: as above; conditions: hybridoma supernatant, 5 days
[14] = tested on: SKBR-3; experiment: as above; conditions: hybridoma supernatant, 5 days

Structure (SMILES)	cytotoxicity, NORMAL CCD27sk [1]	cytotoxicity, LUNG NCI H460 [2]	cytotoxicity, NORMAL Hs888 Lu [3]	cytotoxicity, COLON SW620 [4]	cytotoxicity, COLON HT-29 [5]	cytotoxicity, PROSTATE PC-3 [6]	cytotoxicity, COLON SW1116 [7]	cytotoxicity, BREAST MB-468 [8]	cytotoxicity, BREAST MCF-7 [9]	cytotoxicity, BREAST MB-231 [10]	cytotoxicity, OVARY OVCAR [11]	Cytotoxicity (%) MB-231 Average [12]	Cytotoxicity (%) MB-468 Average [13]	Cytotoxicity (%) SKBR-3 Average [14]
[N-]=[N+]=[N-].[Na+] [NaN3]	−	+++	−	−	+++	+++	−	+++	+++	+++	+++			
C[C@@H]1C[C@@H]([C@H](O)CC2CC(=O)NC(=O)C2)C(=O)[C@@H](C)C1 [Cycloheximide]												49%	24%	56%
